Measured values from patent US20040022850A1, “Modified release formulation” (priority 2000, published 2004).
Values after ≈ are worked out from the molar mass of the structure shown.

Assay: Solubility of the model drugs
Format: physicochemical

| Structure (SMILES) | solubility [µg/mL] |
| --- | --- |
| CCCCOC(=O)c1ccc(O)cc1 [butyl paraben] | 200 (≈ 1030 µM) |
| CC(C)n1c(/C=C/C(O)CC(O)CC(=O)O)c(-c2ccc(F)cc2)c2ccccc21 (centres unmarked) [fluvastatin] | > 50000 |
